The values below come from paper PMC3857039, “First Quantitative Imaging of Organic Fluorine within Angiogenic Tissues by Particle Induced Gamma-Ray Emission (PIGE) Analysis: First PIGE Organic Fluorine Imaging” (Pharmaceutics, 2011).

Where a SMILES comes first, the peptide text is derived from it. [ ]: non-standard residue; d: D form. The star is where a group is joined. X1 = FC(F)(F)C(F)(F)C(F)(F)C(F)(F)C(F)(F)C(F)(F)CCCOCCOCCOCCN*

Data set [1] has as its system chicken chorioallantoic membrane (CAM). Briefly: PIGE/RBS quantification of fluorine in normal CAM tissue and capillaries after intravascular injection of fluorinated tracer. To be noted: for Average fluorine concentration, physiological tissue, CAM (surrounding tissue) / Average fluorine concentration, physiological tissue, Capillaries: 100 μL per embryo, sacrifice 6 h after injection, PIGE. It is filed as in vivo. As for the experimental part: (§1) In preparation for the intravascular injection, 274 mg of FDG is dissolved in 1 mL sterile PBS. For the polyfluorinated glucose solution, 10 mg of the probe was added to 1 mL of polypropylene glycol (MW = 400 g/mol). F13-CBO-P11 solutions were prepared in sterile PBS. For the latter, solutions were obtained by the addition of 20 mg and 35 mg of peptide in 1 mL sterile PBS.
(§2) Fertilized chicken eggs were incubated at 37 °C in a humidified atmosphere. On day 4 of incubation, a window was made in the shell in order to visualize the chorio allantoïc membrane (CAM). On embryonic day 10, in the tumor group, a ring was put on the CAM and U87 glioma cells (5 million cells per egg suspended in 20 μL of medium) were deposited on the CAM within the ring after gentle laceration of the surface. In the other group, a nylon grid was put on the CAM to allow normal tissue to grow on the grid. After 7 days of implantation (embryonic day 17), FDG, polyfluorinated glucose and F13-CBO-P11 solutions were then injected in a blood vessel of the CAM of each egg (100 μL per embryo). Embryos were sacrificed 6 hours after injection. All samples were removed and snap-frozen in liquid nitrogen-chilled isopentane at −160 °C. CAM samples and normal tissue (S1, Scheme 1) coming from nylon grid were then put on targets (2 mm-thick and 20 mm-diameter aluminium target with a 5 mm-hole in the centre) and freeze-dried during 3 days at−30 °C in a cryostat (CM3050S, Leica Microsystems). Tumors were conserved at −80 °C until sectioning. For tumor tissue, successive serial sections (at 100, 200 and 300 μm) were obtained from the CAM to the tumor (S2 to S4, Scheme 1) using the cryostat, put on targets and freeze-dried. After sample preparation, microphotographs were taken to monitor the experiment.
(§3) Particle Induced γ-ray Emission (PIGE) and Rutherford Backscattering Spectrometry (RBS) were performed simultaneously to determine trace elements quantitative distribution, such as F and Fe, and major element as C, N, and O determination, respectively (Figure1). Analyses were performed with proton beam energy at 3.4 MeV in order to benefit from a high cross section for the nuclear reaction for fluorine. Analyses were realized on zones of typically 850 × 850 μm in a scanning mode of the proton beam. The beam was focused onto the sample surface to a spot of 5 μm in diameter, resulting in a proton beam current of 500 pA as measured with a Faraday cup below the sample. Characteristics gamma rays emitted from elements of the target were detected with an ultralow energy planar germanium detector (surface of the Ge crystal is 100 mm², thickness 10 mm) placed at 45° from incident beam. The γ-ray detector was covered by a 100 μm thick carbon filter (hole 0.2% of the total filter surface), to protect the γ-ray detector from backscattered particles. The RBS measurements were performed using a PIPS detector (passivated implanted planar silicon) placed at 135° from the incident beam direction.
(§4) CaF2 micromatter standard (certified material from NIST) and a PVDF film (polyvinylidene difluoride, 25 μm thick) were used as external standard in order to verify the quantification process. γ-ray emission data were analyzed with the Supavisio software to create mask of interesting areas of selected chemical elements. RBS data were analyzed with SIMNRA code.
The quantification of fluorine was performed by comparative analysis with reference standard. PVDF films were analyzed in order to simulate the composition and thickness of biological samples. PyMCA software was used to fit the 110 keV γ peak on PIGE spectra on a PVDF film and biological samples. The intensity of the peak in the PVDF was used to normalize yield in samples [14, 16].
The combination of PIGE and RBS quantitative data were used for mass normalization of y-ray emission, leading to element concentrations expressed in terms of μg of element per g of dry mass sample. […]

Data set [2] deals with U87 human glioma cells tumor xenografted on the CAM. In words: PIGE/RBS quantification of fluorine in sections of U87 glioma tumor implanted on the CAM after intravascular injection of fluorinated tracer. The data set is classed as in vivo, chicken. To be noted: for Average fluorine concentration, pathological tissue, tumor section (surrounding tissue) / Average fluorine concentration, pathological tissue, capillaries of tumor section / Average fluorine concentration, pathological tissue, Tumor: sacrifice 6 h after injection, PIGE, per g dry mass; for Average fluorine concentration, pathological tissue, Tumor: FDG 1.53 M. The procedure:
as §1
U87 human glioma cells (ATCC) were selected for the study as an established model for malignant gliomas that form highly vascularized tumors. Cells were maintained in culture using Dulbecco's modified Eagle's medium (DMEM) with 10% FBS, L-glutamine (2 mmol L^−1), and antibiotics (penicillin 50 UI mL^−1, streptomycin 50 μg mL^−1). Cell culture was performed in a 37 °C incubator with humidified atmosphere and 5% CO2. Cells were grown to confluence, harvested after trypsinization, and re-suspended in serum-free DMEM for implantation.
as §2, §3, §4
The quantification of fluorine was performed by comparative analysis with reference standard. […]

Data set [3] has the same test system. The data set is described as above. It is filed as in vivo, chicken. To be noted: Sample 2, section S1 (tumor section); FDG 0.77 M in PBS, 100 μL per embryo, sacrifice 6 h after injection; PIGE; per g dry mass.
Setting [4] is: Sample 8, section S1 (CAM sample, no tumor), 35 mM in PBS, per g dry mass.
Setting [5] is: Sample 6, serial tumor section S2, 20 mM in PBS, 100 μL per embryo.
Setting [6] is: Sample 7, serial tumor section S2, 35 mM in PBS, 100 μL per embryo.
The mark [7] stands for this setting: Sample 3, section S1 (CAM sample, no tumor), FDG 1.53 M in PBS, per g dry mass.

`CC[C@H](C)[C@@H]1NC(=O)[C@H](Cc2c[nH]cn2)NC(=O)[C@H](CCC(N)=O)NC(=O)CNC(=O)[C@H](CCC(N)=O)NC(=O)[C@H](Cc2c[nH]cn2)NC(=O)[C@@H]2CCCN2C(=O)[C@H](CCCCN)NC(=O)[C@H]([C@@H](C)CC)NC(=O)[C@H](CCCNC(=N)N)NC(=O)[C@H](CCSC)NC(=O)[C@H]([C@@H](C)CC)NC(=O)[C@H](CCC(N)=O)NC(=O)[C@@H]2CCCN2C(=O)[C@@H](Cc2ccccc2)NC(=O)[C@H](CCC(=O)NCCOCCOCCOCCCC(F)(F)C(F)(F)C(F)(F)C(F)(F)C(F)(F)C(F)(F)F)NC(=O)CNC1=O` [Compound F13-CBO-P11] (cyclo(E(X1)[dF]PQIMRIKPHQGQHIG)): in data set [1] (setting [4]), the “Average fluorine concentration, physiological tissue, CAM (surrounding tissue)” value amounted to 2050±175 μg/g. The “Average fluorine concentration, physiological tissue, Capillaries” value in data set [1] (setting [4]) came to 6570±555 μg/g. In addition, in data set [1] (sample 8, 35 mM), the “Fold higher fluorine concentration in capillaries than in surrounding tissue, normal tissue” value was 3 times. In addition, the “Average fluorine concentration, pathological tissue, tumor section (surrounding tissue)” value came to 450±35 μg/g in data set [2] (Sample 6, serial tumor section S1, 20 mM in PBS, 100 μL per embryo (0.49 mg fluorine)); 270±20 μg/g in data set [2] (setting [5]); 345±30 μg/g in data set [2] (Sample 7, serial tumor section S1, 35 mM in PBS, 100 μL per embryo (0.85 mg fluorine)); 215±35 μg/g in data set [2] (setting [6]). For the same compound, the “Average fluorine concentration, pathological tissue, capillaries of tumor section” value in data set [2] (Sample 6, serial tumor section S1, 20 mM in PBS, 100 μL per embryo) is 610±70 μg/g; in data set [2] (setting [5]), 360±50 μg/g; in data set [2] (Sample 7, serial tumor section S1, 35 mM in PBS, 100 μL per embryo), 650±70 μg/g; in data set [2] (setting [6]), 460±45 μg/g. Also, the “Dose dependence of fluorine uptake” value in data set [2] (sample 6 (20 mM) versus sample 7 (35 mM)) is “not dose dependant”. Further, the “Fold higher fluorine concentration in capillaries than in surrounding tissue, tumor sections” value in data set [2] (samples 6 and 7, 20 and 35 mM) was determined as 1.5 times.
For the compound `O=C[C@H]([18F])[C@@H](O)[C@H](O)[C@H](O)CO` [FDG, 2-deoxy-2-[18F]fluoro-D-glucose], the “Ratio of fluorine concentrations between capillaries and tissues” value in data set [1] (FDG 0.77 and 1.53 M) is reported as “close to one”. Further, the “Average fluorine concentration within capillaries as well as in surrounding tissues (homogeneous distribution)” value in data set [1] (FDG 0.77 and 1.53 M, overall average of Table 1) is listed as “about 1600 μg/g”. The “Average fluorine concentration, physiological tissue, CAM” value in data set [1] (Sample 1, section S1 (CAM sample, no tumor), FDG 1.53 M in PBS, 100 μL per embryo into CAM blood vessel, embryonic day 17, sacrifice 6 h after injection, freeze-dried, PIGE 3.4 MeV, per g dry mass) turned out to be 1560±180 μg/g. In addition, the “Average fluorine concentration, physiological tissue, Capillaries” value was determined as 960±100 μg/g in data set [1] (Sample 1, section S1 (CAM sample, no tumor), FDG 1.53 M in PBS, per g dry mass) and 1460±170 μg/g in data set [1] (setting [7]). For the same compound, the “Average fluorine concentration, physiological tissue, CAM (surrounding tissue)” value in data set [1] (setting [7]) is listed as 1820±210 μg/g. Besides, the “Average fluorine concentration, pathological tissue, Tumor” value in data set [3] is on record as 1570±180 μg/g; in data set [2] (Sample 3, serial tumor section S2, 100 μL per embryo), 1640±170 μg/g; in data set [2] (Sample 3, serial tumor section S3, 100 μL per embryo), 1950±240 μg/g; in data set [2] (Sample 3, serial tumor section S4, 100 μL per embryo), 1470±140 μg/g.
